Assay results taken from patent publication US20070231837A1, “Method of Assessing Properties of Mammalian Cells, and Method of Diagnosing Cancer Using the Same” (priority 2004, published 2007).

Tested on: breast cancer patients
Assay: Chemotherapeutic effect of anticancer agent: tumor size reduction evaluated by palpation in breast cancer patients
Type: in vivo, human
Experimental: An anticancer agent docetaxel (Aventis) was administered 4 times with an interval of 3 to 4 weeks, with 60 mg/M^2 (body surface area) per dosage for the breast cancer patients A through I. After the administration, the tumor size reduction was assessed.
A pathologist evaluated the tumors by palpation according to the criteria described in the following paper: Arbuck S G, Eisenhauer E A, Wanders J, Kaplan R S, Rubinstein L, Verweij J, Van Glabbeke M, van Oosterom A T, Christian M C, and Gwyther S G, “New guidelines to evaluate the response to treatment in solid tumors”, J. Natl. Cancer Inst 2000; 92: 205-21. When the tumor was evaluated with the result of “Complete response” and “Partial response”, the tumor was classified into the group of tumor size reduction. When the tumor was evaluated with the result of “Stable Disease” and “Progressive Disease”, the tumor was classified into the group of non-tumor size reduction.
An anticancer agent paclitaxel (Bristol Meyers Squibb) was administered once a week for 12 consecutive weeks, with 80 mg/M^2 (body surface area) per dosage for the breast cancer patients A through I (sic, correctly, J through P). After the administration, the tumor size reduction was assessed according to the same criterion as used in the administration of docetaxel.

[1] = docetaxel 60 mg/M^2 per dosage, 4 times with an interval of 3 to 4 weeks, breast cancer patients A through I

Compound	patients classified into non-tumor size reduction group (Stable Disease or Progressive Disease) [1]	patients classified into tumor size reduction group (Complete response or Partial response) [1]	patients who were assessed that the tumor size reduction was observed (paclitaxel 80 mg/M^2 per dosage, once a week for 12 consecutive weeks, breast cancer patients J through P)
CC(=O)O[C@@]12CO[C@@H]1C[C@H](O)[C@@]1(C)C(=O)[C@H](O)C3=C(C)[C@@H](OC(=O)[C@H](O)[C@@H](NC(=O)OC(C)(C)C)c4ccccc4)C[C@@](O)([C@@H](OC(=O)c4ccccc4)[C@H]21)C3(C)C [docetaxel]	A, B, C, and D	E, F, G, H, and I	
CC(=O)O[C@H]1C(=O)[C@@]2(C)[C@H]([C@H](OC(=O)c3ccccc3)[C@]3(O)C[C@H](OC(=O)[C@H](O)[C@@H](NC(=O)c4ccccc4)c4ccccc4)C(C)=C1C3(C)C)[C@]1(OC(C)=O)CO[C@@H]1C[C@@H]2O [paclitaxel]			K, L, M, N, O, and P
